Results published in patent publication US20260092037A1, “CRYSTALLINE SALT FORMS OF N-((1-(2-(TERT-BUTYLAMINO)-2-OXOETHYL)PIPERIDIN-4-YL) METHYL)-3-CHLORO-5-FLUOROBENZAMIDE AND METHODS OF USE THEREOF” (priority 2023, published 2026).
Like-named read-outs stand apart in the source and are kept apart here.

Columns and labels:
[1] = X-ray powder diffraction (XRPD) of salt screen and scale-up products; format: physicochemical; conditions: salt screen
[2] = system: absence seizures; conditions: childhood absence epilepsy, cited from earlier work
[3] = at 16 weeks, as assessed by video-EEG recordings

In the case of `O=S(=O)(O)CCO` [Isethionate], the “XRPD Pattern” value ([1]; Grind, ACN) was “API A + NC”.
In the case of Tartrate, the “XRPD Pattern” value ([1]; Grind, IPA) was “API A + acid + NC”.
For `O=CO` [Formate], the “XRPD Pattern” value ([1]; E (evaporation), EtOH) was “API A (PO)” and the “XRPD Pattern” value ([1]; Grind, ACN) was “API A”.
In the case of Caprate, the “XRPD Pattern” value ([1]; E (evaporation), EtOH) was “API A (PO)” and the “XRPD Pattern” value ([1]; Grind, ACN) was “API A + pks”.
For Glucuronate, the “XRPD Pattern” value ([1]; Grind, acetone) was “API A + pks” and the “XRPD Pattern” value ([1]; LY, dioxane/water) was “API A + NC”.
With Caprylate the “XRPD Pattern” value ([1]; E (evaporation), EtOH) was “API A (PO)” and the “XRPD Pattern” value ([1]; Grind, ACN) was “API A”.
With Laurate the “XRPD Pattern” value ([1]; E, MeOH) was “API A + acid + pks” and the “XRPD Pattern” value ([1]; Grind, ACN) was “API A + acid + pks”.
With Propionate the “XRPD Pattern” value ([1]; E, MeOH) was “API A” and the “XRPD Pattern” value ([1]; Grind, ACN) was “API A”.
For Pyroglutamate, the “XRPD Pattern” value ([1]; Grind, MEK) was “API A + pks”.
With Hippurate the “XRPD Pattern” value ([1]; E (evaporation), EtOH) was “API A + NC” and the “XRPD Pattern” value ([1]; Grind, IPA) was “API A + acid”.
For Benzoate, the “XRPD Pattern” value ([1]; E (evaporation), EtOH) was “API A + NC”, the “XRPD Pattern” value ([1]; Grind, ACN) was “API A + NC” and the “XRPD Pattern” value ([1]; SL, IPE, RT) was “API A”.
In the case of `Nc1nnc(-c2cccc(Cl)c2Cl)c(N)n1` [Lamotrigine], the “patients in whom the seizures were completely controlled” value (from here on “patients”) ([2]; at 12 months) is given as 21% and the “patients” value [2, 3] is given as 29%.
For Stearate, the “XRPD Pattern” value ([1]; E, MeOH) was “API A + acid” and the “XRPD Pattern” value ([1]; Grind, ACN) was “API A + acid”.
In the case of `CC(=O)O` [Acetate], the “XRPD Pattern” value ([1]; E (evaporation), EtOH) was “API A (PO)” and the “XRPD Pattern” value ([1]; Grind, ACN) was “API A”.
For `CC(C)C(=O)O` [Isobutyrate], the “XRPD Pattern” value ([1]; E, MeOH) was “API A” and the “XRPD Pattern” value ([1]; Grind, ACN) was “API A”.
In the case of `O=C(O)CCC(=O)C(=O)O` [Ketoglutarate], the “XRPD Pattern” value ([1]; E, MeOH/ACN (1:1)) was “NC + pks” and the “XRPD Pattern” value ([1]; Grind, ACN) was “API A + NC”.
For Camphorate, the “XRPD Pattern” value ([1]; E (evaporation), EtOH) was “API A (PO)” and the “XRPD Pattern” value ([1]; Grind, ACN) was “API A + acid”.
With Gluconate the “XRPD Pattern” value ([1]; E, MeOH/toluene (1:1), RT) was “API A”, the “XRPD Pattern” value ([1]; Grind, ACN) was “API A” and the “XRPD Pattern” value ([1]; LY, dioxane/water) was “API A + NC”.
In the case of Citrate, the “XRPD Pattern” value ([1]; Grind, EtOAc) was “API A + acid + NC”.
For Palmitate, the “XRPD Pattern” value ([1]; E, MeOH) was “API A + acid” and the “XRPD Pattern” value ([1]; Grind, ACN) was “API A + acid”.
In the case of Malate, the “XRPD Pattern” value ([1]; Grind, IPA) was “API A + NC”.
With Oleate the “XRPD Pattern” value ([1]; E, MeOH) was “API A (PO)” and the “XRPD Pattern” value ([1]; Grind, ACN) was “API A + NC”.
In the case of `CCC1(C)CC(=O)NC1=O` (stereo not shown) [ethosuximide], the “patients” value ([2]; at 12 months) is given as 45% and the “patients” value [2, 3] is given as 53%.
In the case of `N[C@@H](CCC(=O)O)C(=O)O` [Glutamate], the “XRPD Pattern” value ([1]; Grind, ACN/water (9:1)) was “API A + acid” and the “XRPD Pattern” value ([1]; SL, ACN, 50° C.) was “API A + acid”.
For Alginate, the “XRPD Pattern” value ([1]; Grind, IPA) was “API A”.
For Ascorbate, the “XRPD Pattern” value ([1]; E (evaporation), EtOH) was “API A (PO)” and the “XRPD Pattern” value ([1]; Grind, ACN) was “API A + acid”.
For Gentisate, the “XRPD Pattern” value ([1]; Grind, BuOAc) was “API A + NC”.
